How the values were obtained:
[1] = tested on: response to the pain in mice; assay: Hot Plate test (analgesic effect)
[2] = tested on: response to the pain in mice; assay: Tail Flick test (analgesic effect)
[3] = 10 mg/kg i.p., 30 min, formula (I) compounds as formates
[4] = 10 mg/kg i.p., 60 min, formula (I) compounds as formates
[5] = 10 mg/kg i.p., 120 min, formula (I) compounds as formates
[6] = 10 mg/kg i.p., 240 min, formula (I) compounds as formates
[7] = 10 mg/kg i.p., 360 min, formula (I) compounds as formates
[8] = 20 mg/kg i.p., 30 min, as formates
[9] = 20 mg/kg i.p., 60 min, as formates
[10] = 20 mg/kg i.p., 120 min, as formates
[11] = 20 mg/kg i.p., 240 min, as formates
[12] = 20 mg/kg i.p., 360 min, as formates

What does the source list for CCC(=O)N1CCC2CCC(C1)N2C/C=C(\C)c1ccccc1 (stereo not shown) [I-Aa]?
MPE % [1, 3]: 49.5 ± 10.5%; MPE % [1, 4]: 25.1 ± 6.1%; MPE % [1, 5]: 6.0 ± 3.0%; MPE % [1, 6]: 3.2 ± 3.0%; MPE % [1, 7]: 4.1 ± 1.0%; MPE % [2, 3]: 65.5 ± 6.5%; MPE % [2, 4]: 20.1 ± 4.1%; MPE % [2, 5]: 10.0 ± 1.0%; MPE % [2, 6]: 3.1 ± 2.0%; MPE % [2, 7]: −3.0 ± 0.5%; melting point: 230 to 232 °C

For CCC(=O)N1CCC2CCC(C1)N2C/C=C(\C)c1ccc(Cl)c(Cl)c1 (stereo not shown) [I-Ab], which melting point is on record?
The melting point was 188 to 189 °C.

For CCC(=O)N1CCC2CCC(C1)N2CC=C(c1ccccc1)c1ccccc1 (stereo not shown) [I-Ad], which melting point is on record?
The melting point was 176 to 177 °C.

Which MPE % [1, 8] does the source give for CCC(=O)N1C2CCC1CN(C/C=C(\C)c1ccccc1)CC2 (stereo not shown) [I-Ba] here?
Its MPE % is 68.9 ± 7.2%.

What about the MPE % [1, 9] of the same molecule?
Its MPE % is 50.5 ± 11.3%.

And the MPE % [1, 10]?
Its MPE % is 7.0 ± 2.1%.

What about the MPE % [1, 11] of the same molecule?
Its MPE % is 6.0 ± 2.1%.

What about the MPE % [1, 12] of the same molecule?
Its MPE % is −4.0 ± 2.0%.

What about the MPE % [2, 8] of the same molecule?
The MPE % was 89.9 ± 7.0%.

What about the MPE % [2, 9] of the same molecule?
Its MPE % is 88.5 ± 10.3%.

What about the MPE % [2, 10] of the same molecule?
The MPE % was 9.0 ± 2.5%.

What about the MPE % [2, 11] of the same molecule?
The MPE % was 2.0 ± 1.1%.

What about the MPE % [2, 12] of the same molecule?
Its MPE % is −2.0 ± 1.0%.

And the melting point?
The melting point was 228 to 230 °C.

Which melting point does the source give for CCC(=O)N1C2CCC1CN(C/C=C(\C)c1ccc(Cl)c(Cl)c1)CC2 (stereo not shown) [I-Bb] here?
The melting point was 186 to 188 °C.

For CCC(=O)N1C2CCC1CN(CC=C(c1ccccc1)c1ccccc1)CC2 (stereo not shown) [I-Bd], which melting point is on record?
Its melting point is 184 to 186 °C.

Which melting point does the source give for CCC(=O)N1CCC2CCCC(C1)N2C/C=C(\C)c1ccccc1 (stereo not shown) [I-Ca] here?
The melting point was 106 to 108 °C.

Which melting point does the source give for CCC(=O)N1CCC2CCCC(C1)N2C/C=C(\C)c1ccc(Cl)c(Cl)c1 (stereo not shown) [I-Cb] here?
Its melting point is 184 to 185 °C.

Which results are given for CCC(=O)N1CCC2CCCC(C1)N2CC=C(c1ccccc1)c1ccccc1 (stereo not shown) [I-Cc]?
MPE % [1, 8]: 55.2 ± 10.5%; MPE % [1, 9]: 40.9 ± 7.8%; MPE % [1, 10]: 24.1 ± 7.3%; MPE % [1, 11]: 5.0 ± 4.0%; MPE % [1, 12]: 0.1 ± 1.1%; MPE % [2, 8]: 80.2 ± 7.5%; MPE % [2, 9]: 52.9 ± 8.1%; MPE % [2, 10]: 42.1 ± 8.3%; MPE % [2, 11]: 14.6 ± 3.0%; MPE % [2, 12]: 0.0 ± 0.8%; melting point: 137 to 139 °C

With CCC(=O)N1C2CCCC1CN(C/C=C(\C)c1ccccc1)CC2 (stereo not shown) [I-Da] as the molecule, how does the melting point read?
Its melting point is 144 to 146 °C.

For CCC(=O)N1C2CCCC1CN(C/C=C(\C)c1ccc(Cl)c(Cl)c1)CC2 (stereo not shown) [I-Db], which melting point is on record?
The melting point was 175 to 176 °C.

For CCC(=O)N1C2CCCC1CN(CC=C(c1ccccc1)c1ccccc1)CC2 (stereo not shown) [I-Dc], which melting point is on record?
Its melting point is 169 to 170 °C.

For CN1CC[C@]23c4c5ccc(O)c4O[C@H]2[C@@H](O)C=C[C@H]3[C@H]1C5 [Morphine, reference compound], which MPE % [2, 4] is on record?
The MPE % was 60.5 ± 6.8%.

And the MPE % [2, 5]?
Its MPE % is 39.6 ± 4.0%.

And the MPE % [2, 6]?
The MPE % was 19.1 ± 3.0%.

And the MPE % [2, 7]?
Its MPE % is 6.1 ± 1.1%.
